In the supplement of paper PMC5908809:

What was measured:
[1] = tested on: SNK-6 (IL-2 2.5 ng/mL); test: percent inhibition of viability; higher = more inhibition; conditions: 72 h
[2] = tested on: KHYG-1 (IL-2 2.5 ng/mL); test: as above; conditions: 72 h
[3] = tested on: normal primary NK cells, pool 3 (3 donors) (IL-2 2.5 ng/mL); test: as above; conditions: 72 h
[4] = tested on: IMC-1 (IL-2 20 ng/mL); test: as above; conditions: 72 h
[5] = tested on: NK-92 (IL-2 2.5 ng/mL); test: as above; conditions: 72 h
[6] = tested on: normal primary NK cells, pool 1 (3 donors) (IL-2 2.5 ng/mL); test: as above; conditions: 72 h
[7] = tested on: NKL (IL-2 2.5 ng/mL); test: as above; conditions: 72 h
[8] = tested on: normal primary NK cells, pool 1 (3 donors), resting (IL-2 0 ng/mL); test: as above; conditions: 72 h
[9] = tested on: KAI3 (IL-2 2.5 ng/mL); test: as above; conditions: 72 h
[10] = tested on: NK-YS (IL-2 2.5 ng/mL); test: as above; conditions: 72 h
[11] = tested on: DERL-7 (IL-2 2.5 ng/mL); test: as above; conditions: 72 h
[12] = tested on: normal primary NK cells, pool 2 (3 donors) (IL-2 2.5 ng/mL); test: as above; conditions: 72 h
[13] = tested on: YT (IL-2 2.5 ng/mL); test: as above; conditions: 72 h
[14] = tested on: normal NK cells expanded with K562-aAPC; test: as above; conditions: 72 h, IL-2 2.5 ng/mL
Protocol: (§1)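 Drug sensitivity and resistance testing on K562-aAPC-expanded normal NK cells: 5 concentrations (10-fold steps over a 10,000-fold range), 72 h at 37 °C, viability by CellTiter-Glo normalised to DMSO and benzethonium chloride controls; DSS from the fitted curve.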

[15] = tested on: normal NK cells expanded with K562-aAPC; test: drug sensitivity score (DSS) (DSS units); higher = more sensitive; extreme values may be limits of the assay; conditions: 72 h; IL-2 2.5 ng/mL
Protocol: as §1

[16] = tested on: SNK-6 (IL-2 2.5 ng/mL); test: as above; conditions: 72 h
[17] = tested on: KHYG-1 (IL-2 2.5 ng/mL); test: as above; conditions: 72 h
[18] = tested on: normal primary NK cells, pool 3 (3 donors) (IL-2 2.5 ng/mL); test: as above; conditions: 72 h
[19] = tested on: IMC-1 (IL-2 20 ng/mL); test: as above; conditions: 72 h
[20] = tested on: NK-92 (IL-2 2.5 ng/mL); test: as above; conditions: 72 h
[21] = tested on: normal primary NK cells, pool 1 (3 donors) (IL-2 2.5 ng/mL); test: as above; conditions: 72 h
[22] = tested on: NKL (IL-2 2.5 ng/mL); test: as above; conditions: 72 h
[23] = tested on: normal primary NK cells, pool 1 (3 donors), resting (IL-2 0 ng/mL); test: as above; conditions: 72 h
[24] = tested on: KAI3 (IL-2 2.5 ng/mL); test: as above; conditions: 72 h
[25] = tested on: NK-YS (IL-2 2.5 ng/mL); test: as above; conditions: 72 h
[26] = tested on: DERL-7 (IL-2 2.5 ng/mL); test: as above; conditions: 72 h
[27] = tested on: normal primary NK cells, pool 2 (3 donors) (IL-2 2.5 ng/mL); test: as above; conditions: 72 h
[28] = tested on: YT (IL-2 2.5 ng/mL); test: as above; conditions: 72 h

Cn1c(Nc2ccc(C(F)(F)F)cc2)nc2cc(Oc3ccnc(-c4ncc(C(F)(F)F)[nH]4)c3)ccc21 [RAF265] (max concentration tested 1000 nM)
percent inhibition of viability [%]
Conditions	0.1 nM	1 nM	10 nM	100 nM	1000 nM
[1]	6.03	2.76	3.1	-14.9	44.9
[2]	-7.83	-6.28	-1.05	11.5	34.9
[3]	-13	11.3	6.16	-1.81	8.78
[4]	-5.99	-2.17	-3.34	-3.31	12
[5]	-17.8	-16.1	-9.27	11.7	59.3
[6]	-7.64	17.4	8.25	15.4	23
[7]	2.6	2.04	1.53	9.44	31.3
[8]	-7.48	14.2	11.3	45.5	69.8
[9]	-0.58	3.63	9.74	26.2	47.5
[10]	-5.8	-6.28	-1.83	4.39	18.3
[11]	-3.61	1.74	-1.22	22.4	46.9
[12]	-11	7.1	-0.02	-1.76	19.7
[13]	-4.07	-2.24	1.77	6.57	15.5
[14]	-1.93	-2.9	-2.68	12.1	30.9

Conditions	drug sensitivity score
[15]	2.97
[16]	1.66
[17]	3.28
[18]	0
[19]	0.01
[20]	5.13
[21]	2.83
[22]	2.71
[23]	10.2
[24]	5.82
[25]	0.99
[26]	5.33
[27]	0.47
[28]	0.52

COc1cc(OC)c(/C=C/S(=O)(=O)Cc2ccc(OC)c(NCC(=O)O)c2)c(OC)c1 [Rigosertib] (max concentration tested 10000 nM)
percent inhibition of viability [%]
Conditions	1 nM	10 nM	100 nM	1000 nM	10000 nM
[1]	-14.2	3	76.5	95.2	97.2
[2]	-1.12	-2.53	96.6	102	97.6
[3]	-13.6	-15.7	-12.6	-0.93	21.3
[4]	-6.34	-1.76	93.8	99.2	97.8
[5]	-6.11	2.36	77.7	97.1	94.3
[6]	-11.3	-13.9	-2.02	15.3	45.3
[7]	-16.2	-17.7	87.4	92.2	85.4
[8]	-8.83	-4.84	6.87	37.8	69.8
[9]	-3.07	5.22	55	71.9	67.5
[10]	-0.07	0.08	70.9	76.8	77.4
[11]	-3.53	3.03	91	98	97.8
[12]	-8.68	-8.95	-9.12	13.6	37.4
[13]	-2.58	3.15	82.9	98.4	95.7
[14]	-1.17	-9.48	-1.76	57.7	82.7

Conditions	drug sensitivity score
[15]	11.3
[16]	26.8
[17]	29.8
[18]	0.62
[19]	29.3
[20]	26.8
[21]	4.54
[22]	26.7
[23]	8.37
[24]	20.3
[25]	23
[26]	29.1
[27]	3.7
[28]	27.8
